Where a SMILES comes first, the peptide text is derived from it.
Legend:
mGLP-1R = biological target: T1, mGLP-1R (Mus musculus, UniProt O35659); assay: GLP-1R agonist activity, cAMP in transfected HEK293 cells; type: cell-based; conditions: HEK293 cells transfected with GLP-1R, cAMP, 20 min incubation; read-out: mGLP-1R EC50
T1 construct: expressed in transfected cells; host or cells: HEK293
T1 sequence (O35659 22-463): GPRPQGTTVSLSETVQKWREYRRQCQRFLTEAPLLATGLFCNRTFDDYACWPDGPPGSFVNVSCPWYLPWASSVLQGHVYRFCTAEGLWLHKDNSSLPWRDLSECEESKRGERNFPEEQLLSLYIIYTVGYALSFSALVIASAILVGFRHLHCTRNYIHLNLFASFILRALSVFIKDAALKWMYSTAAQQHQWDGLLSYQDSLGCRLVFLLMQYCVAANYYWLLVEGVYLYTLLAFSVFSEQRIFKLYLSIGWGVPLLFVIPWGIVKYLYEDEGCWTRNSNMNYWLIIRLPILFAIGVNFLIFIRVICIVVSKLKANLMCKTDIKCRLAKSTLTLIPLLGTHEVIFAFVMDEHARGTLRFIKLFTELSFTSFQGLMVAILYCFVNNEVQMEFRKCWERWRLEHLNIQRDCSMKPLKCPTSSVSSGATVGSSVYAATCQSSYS
Description: HEK293 cells were co-transfected with cDNA encoding GLP-1R or GIPR. In a test for determining the compound, the cells were inoculated in a 96-well plate 2 h in advance, the polypeptide compound was dissolved with DMSO, and diluted to different multiples with a culture medium containing 0.1% bovine serum albumin and added to the co-transfected cells. After the cells were incubated for 20 min, fluorescence values were determined through microplate reader of an ELISA kit of the Cisbo Company, a standard curve was established to convert the fluorescence values into corresponding cAMP values, and the EC50 value of the compound was calculated through nonlinear regression of Graphpad Prism 5.0 software.

mGIPR = biological target: T2, mGIPR (Mus musculus, UniProt Q0P543); assay: GIPR agonist activity, cAMP in transfected HEK293 cells; type: cell-based; conditions: HEK293 cells transfected with GIPR, cAMP, 20 min incubation; read-out: mGIPR EC50
T2 construct: expressed in transfected cells; host or cells: HEK293
T2 sequence (Q0P543 19-460): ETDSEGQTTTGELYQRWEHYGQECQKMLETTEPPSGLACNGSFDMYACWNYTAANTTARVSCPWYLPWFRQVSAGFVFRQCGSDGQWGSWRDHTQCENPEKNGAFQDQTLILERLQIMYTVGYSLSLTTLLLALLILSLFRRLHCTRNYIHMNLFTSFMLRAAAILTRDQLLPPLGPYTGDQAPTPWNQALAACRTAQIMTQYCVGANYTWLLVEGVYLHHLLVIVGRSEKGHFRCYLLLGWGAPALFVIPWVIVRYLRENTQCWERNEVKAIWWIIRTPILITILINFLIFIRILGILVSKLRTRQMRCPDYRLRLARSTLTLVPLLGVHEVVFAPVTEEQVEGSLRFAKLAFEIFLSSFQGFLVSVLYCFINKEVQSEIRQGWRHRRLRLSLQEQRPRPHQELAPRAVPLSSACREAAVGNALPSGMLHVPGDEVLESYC
Description: HEK293 cells were co-transfected with cDNA encoding GLP-1R or GIPR. In a test for determining the compound, the cells were inoculated in a 96-well plate 2 h in advance, the polypeptide compound was dissolved with DMSO, and diluted to different multiples with a culture medium containing 0.1% bovine serum albumin and added to the co-transfected cells.

SMILES	EC50 (mGLP-1R) [pM]	EC50 (mGIPR) [pM]
CCCCCCCCCCCCCCCC(=O)N[C@@H](CCC(=O)NCCCC[C@H](NC(=O)[C@H](CCC(N)=O)NC(=O)[C@H](C)NC(=O)[C@@H](NC(=O)[C@H](CCCCN)NC(=O)[C@H](CC(=O)O)NC(=O)[C@H](CC(C)C)NC(=O)C1(NC(=O)[C@@H](NC(=O)[C@H](CO)NC(=O)[C@H](Cc2ccc(O)cc2)NC(=O)[C@H](CC(=O)O)NC(=O)[C@H](CO)NC(=O)[C@@H](NC(=O)[C@H](Cc2ccccc2)NC(=O)[C@@H](NC(=O)CNC(=O)[C@H](CCC(=O)O)NC(=O)C2(NC(=O)[C@@H](N)Cc3ccc(O)cc3)CCCC2)[C@@H](C)O)[C@@H](C)O)[C@@H](C)CC)CCCC1)[C@@H](C)CC)C(=O)N[C@@H](C)C(=O)N[C@@H](Cc1ccccc1)C(=O)N[C@H](C(=O)N[C@@H](CCC(N)=O)C(=O)N[C@@H](Cc1c[nH]c2ccccc12)C(=O)N[C@@H](CC(C)C)C(=O)N[C@H](C(=O)N[C@@H](C)C(=O)NCC(=O)NCC(=O)N1CCC[C@H]1C(=O)N[C@@H](CO)C(=O)N[C@@H](CO)C(=O)NCC(=O)N[C@@H](C)C(=O)N1CCC[C@H]1C(=O)N1CCC[C@H]1C(=O)N1CCC[C@H]1C(=O)N[C@@H](CO)C(N)=O)[C@@H](C)CC)C(C)C)C(=O)O [ID NO: 14]	31.1	51.7
CCCCCCCCCCCCCCCC(=O)N[C@@H](CCC(=O)NCCCC[C@H](NC(=O)[C@H](CCC(N)=O)NC(=O)[C@H](C)NC(=O)[C@@H](NC(=O)[C@H](CCCCN)NC(=O)[C@H](CC(=O)O)NC(=O)[C@H](CC(C)C)NC(=O)[C@@H](NC(=O)[C@@H](NC(=O)[C@H](CO)NC(=O)[C@H](Cc1ccc(O)cc1)NC(=O)[C@H](CC(=O)O)NC(=O)[C@H](CO)NC(=O)[C@@H](NC(=O)[C@H](Cc1ccccc1)NC(=O)[C@@H](NC(=O)CNC(=O)[C@H](CCC(=O)O)NC(=O)[C@@H](NC(=O)[C@@H](N)Cc1ccc(O)cc1)C(C)C)[C@@H](C)O)[C@@H](C)O)[C@@H](C)CC)C(C)C)[C@@H](C)CC)C(=O)N[C@@H](C)C(=O)N[C@@H](Cc1ccccc1)C(=O)N[C@H](C(=O)N[C@@H](CCC(N)=O)C(=O)N[C@@H](Cc1c[nH]c2ccccc12)C(=O)N[C@@H](CC(C)C)C(=O)N[C@H](C(=O)N[C@@H](C)C(=O)NCC(=O)NCC(=O)N1CCC[C@H]1C(=O)N[C@@H](CO)C(=O)N[C@@H](CO)C(=O)NCC(=O)N[C@@H](C)C(=O)N1CCC[C@H]1C(=O)N1CCC[C@H]1C(=O)N1CCC[C@H]1C(=O)N[C@@H](CO)C(N)=O)[C@@H](C)CC)C(C)C)C(=O)O [ID NO: 12] (HELM PEPTIDE1{Y.V.E.G.T.F.T.S.D.Y.S.I.V.L.D.K.I.A.Q.K.A.F.V.Q.W.L.I.A.G.G.P.S.S.G.A.P.P.P.S.[am]}|PEPTIDE2{[CCCCCCCCCCCCCCCC(=O)[*:2]].[gGlu]}$PEPTIDE1,PEPTIDE2,20:R3-2:R2$$$V2.0)	56.1	8.79
CCCCCCCCCCCCCCCC(=O)N[C@@H](CCC(=O)NCCCC[C@H](NC(=O)[C@H](CCC(N)=O)NC(=O)[C@H](C)NC(=O)[C@@H](NC(=O)[C@H](CCCCN)NC(=O)[C@H](CC(=O)O)NC(=O)[C@H](CC(C)C)NC(=O)C(C)(C)NC(=O)[C@@H](NC(=O)[C@H](CO)NC(=O)[C@H](Cc1ccc(O)cc1)NC(=O)[C@H](CC(=O)O)NC(=O)[C@H](CO)NC(=O)[C@@H](NC(=O)[C@H](Cc1ccccc1)NC(=O)[C@@H](NC(=O)CNC(=O)[C@H](CCC(=O)O)NC(=O)C1(NC(=O)[C@@H](N)Cc2ccc(O)cc2)CCCC1)[C@@H](C)O)[C@@H](C)O)[C@@H](C)CC)[C@@H](C)CC)C(=O)N[C@@H](C)C(=O)N[C@@H](Cc1ccccc1)C(=O)N[C@H](C(=O)N[C@@H](CCC(N)=O)C(=O)N[C@@H](Cc1c[nH]c2ccccc12)C(=O)N[C@@H](CC(C)C)C(=O)N[C@H](C(=O)N[C@@H](C)C(=O)NCC(=O)NCC(=O)N1CCC[C@H]1C(=O)N[C@@H](CO)C(=O)N[C@@H](CO)C(=O)NCC(=O)N[C@@H](C)C(=O)N1CCC[C@H]1C(=O)N1CCC[C@H]1C(=O)N1CCC[C@H]1C(=O)N[C@@H](CO)C(N)=O)[C@@H](C)CC)C(C)C)C(=O)O [ID NO: 20]	15.9	5.91
CCCCCCCCCCCCCCCC(=O)N[C@@H](CCC(=O)NCCCC[C@H](NC(=O)[C@H](CCC(N)=O)NC(=O)[C@H](C)NC(=O)[C@@H](NC(=O)[C@H](CCCCN)NC(=O)[C@H](CC(=O)O)NC(=O)[C@H](CC(C)C)NC(=O)C(C)(C)NC(=O)[C@@H](NC(=O)[C@H](CO)NC(=O)[C@H](Cc1ccc(O)cc1)NC(=O)[C@H](CC(=O)O)NC(=O)[C@H](CO)NC(=O)[C@@H](NC(=O)[C@H](Cc1ccccc1)NC(=O)[C@@H](NC(=O)CNC(=O)[C@H](CCC(=O)O)NC(=O)[C@H](C)NC(=O)[C@@H](N)Cc1ccc(O)cc1)[C@@H](C)O)[C@@H](C)O)[C@@H](C)CC)[C@@H](C)CC)C(=O)N[C@@H](C)C(=O)N[C@@H](Cc1ccccc1)C(=O)N[C@H](C(=O)N[C@@H](CCC(N)=O)C(=O)N[C@@H](Cc1c[nH]c2ccccc12)C(=O)N[C@@H](CC(C)C)C(=O)N[C@H](C(=O)N[C@@H](C)C(=O)NCC(=O)NCC(=O)N1CCC[C@H]1C(=O)N[C@@H](CO)C(=O)N[C@@H](CO)C(=O)NCC(=O)N[C@@H](C)C(=O)N1CCC[C@H]1C(=O)N1CCC[C@H]1C(=O)N1CCC[C@H]1C(=O)N[C@@H](CO)C(N)=O)[C@@H](C)CC)C(C)C)C(=O)O [ID NO: 16] (HELM PEPTIDE1{Y.A.E.G.T.F.T.S.D.Y.S.I.[Aib].L.D.K.I.A.Q.K.A.F.V.Q.W.L.I.A.G.G.P.S.S.G.A.P.P.P.S.[am]}|PEPTIDE2{[CCCCCCCCCCCCCCCC(=O)[*:2]].[gGlu]}$PEPTIDE1,PEPTIDE2,20:R3-2:R2$$$V2.0)	42.5	9.65
